Data reported in patent publication US6710017B2, “Compositions and methods for controlling algae in recirculating water systems” (Avecia, Inc., priority 2000, dated 2004).
Like-named read-outs stand apart in the source and are kept apart here.

Columns and labels:
[1] = Margin of exposure versus NOEL (estimated total daily dose to a child in a swimming pool); conditions: for Margin of Exposure vs NOEL (Target > 100): herbicides, Table A, ratio of NOEL to estimated daily dose, 10 ppm in pool water, child 22 kg, 3 hours per day; for Margin of Exposure vs NOEL: agricultural fungicides, Table B
Experimental: The herbicide preferably has a margin of exposure versus no observed effect level (“NOEL”) value of greater than 10, more preferably greater than 50, especially greater than 80, and more especially greater than 99. The margin of exposure versus NOEL is determined by estimating the total daily dose of the herbicide to a child in a swimming pool and determining the ratio of the NOEL to this. The total daily exposure may be estimated as follows. Oral exposure is estimated by assuming that the swimmer is in the water 3 hours per day, and that the swimmer ingests 50 milliliters of pool water per hour of swimming. It is also assumed that the herbicide will be present in the pool water at a concentration of 10 parts per million, equivalent to 10 milligrams per liter of pool water. The daily oral exposure is therefore estimated as the product of the swimming duration, the ingestion rate, and the concentration in the pool water. Dermal exposure is estimated by assuming the swimmer is in the water 3 hours per day, that the total body surface area, 8800 square centimeters, is immersed in the water, and that the herbicide permeates the skin at a rate, expressed in centimeters per hour, predicted by a model for skin permeation based on chemical structure, the Skinperm model, developed by W. F. ten Berge. A short description of the Skinperm model, can be accessed at: http://home.wxs.nl/˜wtberge/, which is incorporated herein by reference. The daily dermal exposure is then estimated as the product of the permeation rate, the concentration of the herbicide in the pool water (expressed in milligrams per cubic centimeter), the swimming duration, and the total body surface area. The total daily exposure is estimated as the sum of the daily oral and daily dermal exposure. The daily dose, expressed in milligrams per kilogram bodyweight per day, is then estimated as the total daily exposure divided by an assumed body weight of 22 kilograms.

[2] = Experimental: The margin of exposure versus NOEL is determined by estimating the total daily dose of the herbicide to a child in a swimming pool and determining the ratio of the NOEL to this. The total daily exposure may be estimated as follows. Oral exposure is estimated by assuming that the swimmer is in the water 3 hours per day, and that the swimmer ingests 50 milliliters of pool water per hour of swimming. It is also assumed that the herbicide will be present in the pool water at a concentration of 10 parts per million, equivalent to 10 milligrams per liter of pool water. The daily oral exposure is therefore estimated as the product of the swimming duration, the ingestion rate, and the concentration in the pool water. Dermal exposure is estimated by assuming the swimmer is in the water 3 hours per day, that the total body surface area, 8800 square centimeters, is immersed in the water, and that the herbicide permeates the skin at a rate, expressed in centimeters per hour, predicted by a model for skin permeation based on chemical structure, the Skinperm model, developed by W. F. ten Berge. A short description of the Skinperm model, can be accessed at: http://home.wxs.nl/˜wtberge/, which is incorporated herein by reference. The daily dermal exposure is then estimated as the product of the permeation rate, the concentration of the herbicide in the pool water (expressed in milligrams per cubic centimeter), the swimming duration, and the total body surface area. The total daily exposure is estimated as the sum of the daily oral and daily dermal exposure. The daily dose, expressed in milligrams per kilogram bodyweight per day, is then estimated as the total daily exposure divided by an assumed body weight of 22 kilograms.
The margin of exposure versus RfD is determined by estimating the total daily dose of the herbicide to a child in a swimming pool, as described above, and determining the ratio of the RfD to this (i.e. margin of exposure/RfD).

mustard algae [3] = experiment: Remedial laboratory study on algae, change in turbidity; conditions: for Change in Turbidity at active agent (ppm) five days post treatment: 5 ppm: 5 ppm active ingredient; for Change in Turbidity at active agent (ppm) five days post treatment: 5 ppm / Change in Turbidity at active agent (ppm) five days post treatment: 10 ppm: initial absorbance 0.10; for Change in Turbidity at active agent (ppm) five days post treatment: 5 ppm / Change in Turbidity at active agent (ppm) five days post treatment: 10 ppm / comments (Remedial Algae Control) / water turbidity: Table 2; for Change in Turbidity at active agent (ppm) five days post treatment: 10 ppm: 10 ppm active ingredient; for water turbidity: indicating killing of the mustard algae; for Turbidity @ 5 ppm active ingredient (Change in Turbidity at five days post treatment) / Turbidity @ 10 ppm active ingredient (Change in Turbidity at five days post treatment): Table 4
mustard algae [4] = experiment: Preventative laboratory study on algae, visual growth score; conditions: for Score @ ppm active agent: 0: 0 ppm; for Score @ ppm active agent: 0 / Score @ ppm active agent: 10 / Score @ ppm active agent: 15 / Score @ 10 ppm / Score @ 15 ppm active ingredient: visual score 0 to 4, 10 days; for Score @ ppm active agent: 0 / Score @ ppm active agent: 10 / Score @ ppm active agent: 15: 27° C.; for Score @ ppm active agent: 10 / Score @ 10 ppm: 10 ppm; for Score @ ppm active agent: 15 / Score @ 15 ppm active ingredient: 15 ppm; for Comments (Preventive Algae Control): Table 1; for Score @ 10 ppm / Score @ 15 ppm active ingredient: Table 3
[5] = herbicides, Table A, 10 ppm in pool water, child 22 kg

6-chloro-N-methyl-N′-(1-methylethyl)-1,3,5-triazine-2,4-diamine [Norflurazon]
Margin of Exposure vs NOEL (Target > 100) [1]: 20 | Margin of Exposure vs. RfD (Target > 1) [2, 5]: 0.3

CCc1cccc(CC)c1N(COC)C(=O)CCl [Alachlor, 2-chloro-2′,6′-diethyl-N-(methoxymethyl) acetanilide]
Margin of Exposure vs NOEL (Target > 100) [1]: 13 | Margin of Exposure vs. RfD (Target > 1) [2, 5]: 0.1

CCNc1nc(NC(C)C)nc(SC)n1 [Ametryn, 2-ethylamino-4-isopropylamino-6-methylthio-s-triazine]
Margin of Exposure vs NOEL (Target > 100) [1]: 25 | Margin of Exposure vs. RfD (Target > 1) ([2]; human, 3 hours per day, 10 ppm): 0.02

COC(=O)c1ccccc1CS(=O)(=O)NC(=O)Nc1nc(OC)cc(OC)n1 [Bensulfuron ME, Methyl 2-[[[[[(4,6-dimethoxypyrimidin-2-yl)amino]carbonyl]amino]sulfonyl]methyl]-benzoate]
Change in Turbidity at active agent (ppm) five days post treatment: 5 ppm (mustard algae [3]): +0.01 | Change in Turbidity at active agent (ppm) five days post treatment: 10 ppm (mustard algae [3]): 0.00 | comments (Remedial Algae Control) (mustard algae [3]): algicidal activity | water turbidity (mustard algae [3]): decreased significantly | Margin of Exposure vs NOEL (Target > 100) [1]: 265 | Margin of Exposure vs. RfD (Target > 1) ([2]; human, 3 hours per day, 10 ppm): 2.7

CC(C)OC(=O)Nc1cccc(Cl)c1 [Chlopropham, Isopropyl 3-chlorocarbanilate; isopropyl 3-chlorophenylcarbamate]
Margin of Exposure vs NOEL (Target > 100) [1]: 67 | Margin of Exposure vs. RfD (Target > 1) ([2]; human, 3 hours per day, 10 ppm): 0.7

COc1nc(C)nc(NC(=O)NS(=O)(=O)c2ccccc2Cl)n1 [Chlorsulfuron, 2-chloro-N-[[(4-methoxy-6-methyl-1,3,5-triazin-2-yl)amino]carbonyl]benzenesulfonamide]
Margin of Exposure vs NOEL (Target > 100) [1]: 67 | Margin of Exposure vs. RfD (Target > 1) ([2]; human, 3 hours per day, 10 ppm): 0.7

CC1(C)CON(Cc2ccccc2Cl)C1=O [Clomazone, 2-[(2-chlorophenyl)methyl]-4,4-dimethyl-3-isoxazolidinone]
Change in Turbidity at active agent (ppm) five days post treatment: 5 ppm (mustard algae [3]): +0.10 | Change in Turbidity at active agent (ppm) five days post treatment: 10 ppm (mustard algae [3]): +0.10 | Score @ ppm active agent: 0 (mustard algae [4]): 4 | Score @ ppm active agent: 10 (mustard algae [4]): 4 | Score @ ppm active agent: 15 (mustard algae [4]): 3 | Comments (Preventive Algae Control) (mustard algae [4]): heavy growth | Margin of Exposure vs NOEL (Target > 100) [1]: 41 | Margin of Exposure vs. RfD (Target > 1) ([2]; human, 3 hours per day, 10 ppm): 0.02

Cc1cc(C2CC2)nc(Nc2ccccc2)n1 [Cyprodinil, 4-cyclopropyl-6-methyl-N-phenyl-2-pyrimidinamine]
Margin of Exposure vs NOEL [1]: 50 | Margin of Exposure vs. RfD ([2]; human, 3 hours per day, 10 ppm): 0.5

COc1ccc(C(=CC(=O)N2CCOCC2)c2ccc(Cl)cc2)cc1OC [Dimethomorph, (E,Z)-4-[3-(4-chlorophenyl)-3-(3,4-dimethoxyphenyl)acryloyl]morpholine]
Margin of Exposure vs NOEL [1]: 88 | Margin of Exposure vs. RfD ([2]; human, 3 hours per day, 10 ppm): 0.8

CN(C)c1nc(=O)n(C2CCCCC2)c(=O)n1C [Hexazinone, 3-cyclohexyl-6-(dimethylamino)-1-methyl-1,3,5-triazine-2,4(1H,3H)-dione]
Change in Turbidity at active agent (ppm) five days post treatment: 5 ppm (mustard algae [3]): −0.03 | Change in Turbidity at active agent (ppm) five days post treatment: 10 ppm (mustard algae [3]): −0.03 | comments (Remedial Algae Control) (mustard algae [3]): algicidal activity | water turbidity (mustard algae [3]): decreased significantly | Margin of Exposure vs NOEL (Target > 100) [1]: 63 | Margin of Exposure vs. RfD (Target > 1) ([2]; human, 3 hours per day, 10 ppm): 0.6

CCc1cnc(C2=NC(C)(C(C)C)C(=O)N2)c(C(=O)O)c1 (stereo not drawn) [Imazethapyr, 2-[4,5-dihydro-4-methyl-4-(1-methylethyl)-5-oxo-1H-imidazol-2-yl]-5ethyl-3-pyridinecarboxylic acid]
Margin of Exposure vs NOEL (Target > 100) [1]: 3333 | Margin of Exposure vs. RfD (Target > 1) ([2]; human, 3 hours per day, 10 ppm): 3.3

CC(C)NC(=O)N1CC(=O)N(c2cc(Cl)cc(Cl)c2)C1=O [Iprodione, 3-(3,5-dichlorophenyl)-N-(1-methylethyl)-2,4-dioxo-1-imidazolidinecarboxamide]
Margin of Exposure vs NOEL [1]: 81 | Margin of Exposure vs. RfD ([2]; human, 3 hours per day, 10 ppm): 0.3

COC(=O)c1ccccc1S(=O)(=O)NC(=O)Nc1nc(C)nc(OC)n1 [Metsulfuron-methyl, Methyl 2-[[[[(4-methoxy-6-methyl-1,3,5-triazin-2-yl)amino]carbonyl]amino]sulfonyl]benzoate]
Change in Turbidity at active agent (ppm) five days post treatment: 5 ppm (mustard algae [3]): +0.09 | Change in Turbidity at active agent (ppm) five days post treatment: 10 ppm (mustard algae [3]): +0.06 | comments (Remedial Algae Control) (mustard algae [3]): Algistatic. More | Margin of Exposure vs NOEL (Target > 100) [1]: 333 | Margin of Exposure vs. RfD (Target > 1) ([2]; human, 3 hours per day, 10 ppm): 3.3

CCSC(=O)N1CCCCCC1 [Molinate, S-ethyl hexahydro-1H-azepine-1-carbothioate]
Margin of Exposure vs NOEL (Target > 100) [1]: 3 | Margin of Exposure vs. RfD (Target > 1) [2, 5]: 0.03

CSc1nc(NC(C)C)nc(NC(C)C)n1 [Prometryn, N,N′-bis(1-methylethyl)-6-(methylthio)-1,3,5-triazine-2,4-diamine]
Margin of Exposure vs NOEL (Target > 100) [1]: 50 | Margin of Exposure vs. RfD (Target > 1) ([2]; human, 3 hours per day, 10 ppm): 0.1

CCC(=O)Nc1ccc(Cl)c(Cl)c1 [Propanil, N-(3,4-dichlorophenyl)propanamide]
Change in Turbidity at active agent (ppm) five days post treatment: 5 ppm (mustard algae [3]): −0.02 | Change in Turbidity at active agent (ppm) five days post treatment: 10 ppm (mustard algae [3]): −0.03 | comments (Remedial Algae Control) (mustard algae [3]): algicidal activity | water turbidity (mustard algae [3]): decreased significantly | Margin of Exposure vs NOEL (Target > 100) [1]: 67 | Margin of Exposure vs. RfD (Target > 1) [2, 5]: 0.1

CCCC(=NOCC)C1=C(O)CC(CC(C)SCC)CC1=O (stereo not drawn) [Sethoxydim, 2-[1-(ethoxyimino)butyl]-5-[2-(ethylthio)propyl]-3-hydroxy-2-cyclohexen-1-one]
Margin of Exposure vs NOEL (Target > 100) [1]: 119 | Margin of Exposure vs. RfD (Target > 1) [2, 5]: 12

C=CC1(C)OC(=O)N(c2cc(Cl)cc(Cl)c2)C1=O (stereo not drawn) [Vinclozolin, 3-(3,5-dichlorophenyl)-5-methyl-5-vinyl-1,3-oxazolidine-2,4-dione]
Margin of Exposure vs NOEL [1]: 33 | Margin of Exposure vs. RfD ([2]; human, 3 hours per day, 10 ppm): 0.3

CCc1cccc(C)c1N(C(=O)CCl)C(C)COC (stereo not drawn) [metolachlor]
Change in Turbidity at active agent (ppm) five days post treatment: 5 ppm (mustard algae [3]): +0.12 | Change in Turbidity at active agent (ppm) five days post treatment: 10 ppm (mustard algae [3]): +0.06 | comments (Remedial Algae Control) (mustard algae [3]): Algistatic. More | Score @ ppm active agent: 0 (mustard algae [4]): 1 | Score @ ppm active agent: 10 (mustard algae [4]): 1 | Score @ ppm active agent: 15 (mustard algae [4]): 1 | Comments (Preventive Algae Control) (mustard algae [4]): very little growth

Poly(oxyethylene(dimethylimino)-ethylene(dimethylimino)-ethylene dichloride) [Polyquat]
Change in Turbidity at active agent (ppm) five days post treatment: 5 ppm (mustard algae [3]): +0.29 | Turbidity @ 5 ppm active ingredient (Change in Turbidity at five days post treatment) (mustard algae [3]): +0.29 | Change in Turbidity at active agent (ppm) five days post treatment: 10 ppm (mustard algae [3]): +0.28 | Turbidity @ 10 ppm active ingredient (Change in Turbidity at five days post treatment) (mustard algae [3]): +0.28 | Score @ ppm active agent: 0 (mustard algae [4]): 2 | Score @ ppm active agent: 10 (mustard algae [4]): 2 | Score @ 10 ppm (mustard algae [4]): 2 | Score @ ppm active agent: 15 (mustard algae [4]): 2 | Score @ 15 ppm active ingredient (mustard algae [4]): 2 | Comments (Preventive Algae Control) (mustard algae [4]): Bloom noticeable

alkyl dimethyl benzylammonium chloride [ADBAC]
Change in Turbidity at active agent (ppm) five days post treatment: 5 ppm (mustard algae [3]): +0.13 | Turbidity @ 5 ppm active ingredient (Change in Turbidity at five days post treatment) (mustard algae [3]): +0.13 | Change in Turbidity at active agent (ppm) five days post treatment: 10 ppm (mustard algae [3]): +0.03 | Turbidity @ 10 ppm active ingredient (Change in Turbidity at five days post treatment) (mustard algae [3]): +0.03 | control of the mustard algae (mustard algae [3]; at 5× and 10× the EPA allowable dose): no control | Score @ ppm active agent: 0 (mustard algae [4]): 3 | Score @ ppm active agent: 10 (mustard algae [4]): 3 | Score @ 10 ppm (mustard algae [4]): 3 | Score @ ppm active agent: 15 (mustard algae [4]): 0 | Score @ 15 ppm active ingredient (mustard algae [4]): 0
